Structures are written as SMILES.

Results on one molecule are retold here after ChEMBL document CHEMBL2074154, “Modulation of the function of P-glycoprotein by estramustine” (J Natl Cancer Inst, 1994).

This data set has as its target ATP-dependent translocase ABCB1 (Homo sapiens, UniProt P08183). The data set is described as follows: TP_TRANSPORTER: increase in Vinblastine intracellular accumulation (Vinblastine: 1 uM, Estramustine: 50 uM) in SKVLB 1 cells. The conditions noted are these: skvlb 1, 50 µM. Format: functional, cell-based.

Chain of ATP-dependent translocase ABCB1 (P08183 whole entry): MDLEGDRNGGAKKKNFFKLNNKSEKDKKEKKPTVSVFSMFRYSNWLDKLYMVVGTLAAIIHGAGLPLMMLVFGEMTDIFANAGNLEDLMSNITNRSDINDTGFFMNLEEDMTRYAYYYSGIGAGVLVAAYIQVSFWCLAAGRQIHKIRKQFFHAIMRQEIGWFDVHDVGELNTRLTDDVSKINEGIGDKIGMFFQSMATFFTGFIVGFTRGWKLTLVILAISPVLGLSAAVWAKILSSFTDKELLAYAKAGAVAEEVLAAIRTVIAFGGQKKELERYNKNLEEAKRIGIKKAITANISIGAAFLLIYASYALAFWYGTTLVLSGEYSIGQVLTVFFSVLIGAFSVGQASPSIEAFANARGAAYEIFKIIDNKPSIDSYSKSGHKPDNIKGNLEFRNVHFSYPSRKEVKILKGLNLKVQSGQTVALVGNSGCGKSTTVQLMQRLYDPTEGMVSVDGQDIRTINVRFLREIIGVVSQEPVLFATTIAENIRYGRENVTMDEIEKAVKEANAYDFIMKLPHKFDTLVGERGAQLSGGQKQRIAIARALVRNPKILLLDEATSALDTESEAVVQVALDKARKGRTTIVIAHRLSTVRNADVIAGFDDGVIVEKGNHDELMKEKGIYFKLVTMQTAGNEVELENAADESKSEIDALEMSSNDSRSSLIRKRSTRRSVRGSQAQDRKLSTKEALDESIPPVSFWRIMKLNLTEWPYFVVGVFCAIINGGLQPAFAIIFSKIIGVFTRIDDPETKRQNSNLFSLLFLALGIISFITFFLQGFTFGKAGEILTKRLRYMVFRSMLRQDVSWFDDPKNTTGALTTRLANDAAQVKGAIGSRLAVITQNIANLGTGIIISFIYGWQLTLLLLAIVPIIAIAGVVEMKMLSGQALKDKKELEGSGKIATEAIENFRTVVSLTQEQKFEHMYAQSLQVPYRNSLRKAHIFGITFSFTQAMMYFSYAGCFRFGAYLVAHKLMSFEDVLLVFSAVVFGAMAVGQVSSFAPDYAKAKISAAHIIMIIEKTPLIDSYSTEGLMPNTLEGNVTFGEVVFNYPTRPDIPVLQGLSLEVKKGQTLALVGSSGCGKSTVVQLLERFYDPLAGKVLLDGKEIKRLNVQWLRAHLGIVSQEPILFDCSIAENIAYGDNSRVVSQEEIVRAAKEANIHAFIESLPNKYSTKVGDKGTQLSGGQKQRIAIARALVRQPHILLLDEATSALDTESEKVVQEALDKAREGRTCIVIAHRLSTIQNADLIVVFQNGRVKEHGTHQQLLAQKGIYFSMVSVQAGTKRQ

Regarding `C[C@]12CC[C@@H]3c4ccc(OC(=O)N(CCCl)CCCl)cc4CC[C@H]3[C@@H]1CC[C@@H]2O` [ESTRAMUSTINE], the Activity entry was “inhibitor [+]”.
